Like-named read-outs stand apart in the source and are kept apart here.
Assays:
calvaria = assay: Cytotoxicity test (MTT), calvaria; format: cell-based; conditions: 10^−6 M, cultured for 72 hrs, in comparison with the control group
Procedure: (§1) The cytotoxic effect of the benzamidine derivative of the present invention was evaluated by carrying out the experiment described below.
(§2) The test substance was diluted in an appropriate solvent at a concentration of 10^−2 M. This substance was diluted in an appropriate culture medium for the cells used in the cytotoxicity test to a concentration of 10^−6M, and loaded into a 96-well plate in 100 μl per well. The cell lines to be used in the cytotoxicity test were plated on a 96-well plate in a dose of 1.0×10^4 cell/100 μl per well, and cultured for 72 hrs. 25 μl of MTT[3-(4,5-dimethyl-2-thiazolyl)-2,5-diphenyl-2H-tetrazolium bromide] dissolved in PBS (2 mg/mL) were added before 4 hrs of the end of culture. After completion of the reaction, the plates were centrifuged, the medium was discarded and 100 μl of DMSO was added to dissolve formazan. Finally, the absorbance of the developed plates was measured at 540 nm. The survival rates of the cells were expressed as % concentration values in comparison with the control group.

MC3T3-E1 = assay: Cytotoxicity test (MTT), MC3T3-E1; format: cell-based; conditions: 10^−6 M, cultured for 72 hrs, in comparison with the control group
Procedure: as §1, §2

HOS = assay: Cytotoxicity test (MTT), HOS; format: cell-based; conditions: 10^−6 M, cultured for 72 hrs, in comparison with the control group
Procedure: as §1, §2

[1] = tested on: osteoclast differentiation; assay: Inhibitory effects on osteoclast differentiation (bone marrow cell/osteoblast co-culture, TRAP staining); format: cell-based, mice; conditions: for inhibition at 1 µM: Mus musculus, Osteoclast, 168 h, read-out: Inhibition of osteoclast differentiation (%)
Procedure: The effect of the benzamidine derivative of the present invention on osteoclast formation and differentiation process was evaluated via co-culture with an osteoblast.
Tibia was aseptically ectomized from 6 to 8-week-old male ddY mice to harvest bone marrow cells by using a syringe (21G, Korea Green Cross). The bone marrow cells were suspended in 5 mL of an α-MEM medium (Gibco BRL Co., supplemented with sodium bicarbonate (2.0 g/L), streptomycin (100 mg/L) and penicillin ([…]), filtered and then sterilized). The harvested cells were centrifuged at 600×g for 5 minutes to collect the whole quantity. To remove the red blood cells in the bone marrow cells, 3 mL of Tris HCl (0.83% NH4Cl, pH 7.5) was added and well mixed. After centrifugation, the numbers of the eukaryotic cells in the harvested bone marrow cells were counted, and then immediately used for a co-culture system.
The progenitor bone and the parietal bone were aseptically ectomized from 1 to 2-day-old neonatal ICR mice, washed with a phosphate butter solution (PBS), and treated with a mixed enzyme solution (0.2% collagenase and 0.1% dispase) six to seven times (10, 10, 10, 20, 20 and 20 min), and then 3 to 6 groups of the cells, in which a large volume of cells having osteoblastic characteristics were contained, were intensively collected, and washed with medium (serum-free α-MEM). The washed cells were cultured in the α-MEM medium containing 10% FBS for 2 to 3 days. After sub-culturing, the collected cells were used for this experiment, and diluted to a concentration of 1×10^6 cells/mL for storage at −70° C.
The benzamidine derivative of the present invention was dissolved in a sterile distilled water or ethanol to be diluted to a desired concentration. The final volume of the sample added to the cell culture medium was set at a ratio of 1:1000.
The bone marrow cells prepared in the above 1-1 and the osteoblast were co-cultured. Both the bone marrow cells (25,000 cells/cm^2) and the osteoblast (10,000 cells/cm^2) were plated in a 96-well plate using α-MEM medium containing FBS, and then cultured with the samples to be tested for 7 days. Differentiation factors, such as dexamethasone (10^−7 M) and vitamin D (10^−8 M), were also co-added to the medium from the first day of cultivation. The medium was changed with a fresh media containing a mixture of the samples and the differentiation factors every 2 to 3 days.
TRAP was used as a marker to measure the matured osteoclast in consideration of its characteristics showing a positive reaction to a TRAP staining solution.
The TRAP staining solution was prepared in such the manner that 5 mg of naphthol AS-MS phosphate (sigma N-4875) as a substrate and 25 mg of a coloring agent (Fast Red Violet LB salt) were dissolved in N,N-dimethylformamide (about 0.5 mL). 50 ml of a 0.1 N […] buffer solution containing 50 mM tartaric acid (pH 5.0) was added thereto, and the mixture was stored in a refrigerator prior to use as a staining solution.
After culturing the cells for 7 days, the medium was removed from the wells, the cells were once washed with PBS, and then fixed with PBS containing 10% formalin for 2 to 5 min. The cells were fixed again in a mixed solution of ethanol and acetone (1/1) for about 1 min, and dried off. The cells were further treated by the TRAP staining solution for 15 minutes, and washed with water and dried off. The osteoclasts with 3 or more nuclei showing a TRAP-positive reaction were counted under a microscopic examination. Each of tests was confirmed at least three times. The inhibitory effect on osteoclast differentiation of each experimental group, relative to negative controls, was expressed as a percentage (%).

[2] = 1 μm, 7 days co-culture, TRAP-positive osteoclasts with 3 or more nuclei, relative to negative controls

Row | SMILES | Cell survival rate (calvaria) [%] | Cell survival rate (MC3T3-E1) [%] | Cell survival rate (HOS) [%] | inhibition at 1 µM [1] [%] | inhibition at 1 µM [1, 2] [%] | Inhibition of osteoclast differentiation (%) [1, 2] [%]
1 | CN(CCN1CCOCC1)c1nc(-c2ccc(OCCCCCOc3ccc(C(=N)NO)cc3)cc2)c(CN2CCSCC2)s1 [Example 29, N-hydroxy-4-[5-(4-{2-[methyl-(2-morpholin-4-yl-ethyl)-amino]-5-thiomorpholin-4-ylmethyl-thiazol-4-yl}-phenoxy)-pentyloxy]-benzamidine] | 99 | 109 | 109 | 97 |  | 
2 | N=C(NO)c1ccc(OCCCCCOc2ccc(-c3nc(-c4ccccc4)sc3N)cc2)cc1 [Example 45, N-hydroxy-4-{5-[4-(5-amino-2-phenyl-thiazol-4-yl)-phenoxy]-pentyloxy}-benzamidine] | 83 | 81 | 104 |  | 91 | 
3 | CN(Cc1ccccc1)c1nc(-c2ccc(OCCCCCOc3ccc(C(=N)NO)cc3)cc2)c(CN2CCOCC2)s1 [Example 27, N-hydroxy-4-(5-{4-[2-(benzyl-methyl-amino)-5-morpholin-4-ylmethyl-thiazol-4-yl]-phenoxy}-pentyloxy)-benzamidine] | 106 | 102 | 104 |  | 77 | 
4 | Cc1nc(-c2ccc(OCCCCCOc3ccc(C(=N)NO)cc3)cc2)c(N2CCOCC2)s1 [Example 1, N-hydroxy-4-{5-[4-(2-methyl-5-morpholin-4-yl-thiazol-4-yl)-phenoxy]-pentyloxy}-benzamidine] | 91.5 | 85.9 | 105.6 |  | 94 | 
5 | CN1CCN(Cc2sc(N(C)CCN3CCOCC3)nc2-c2ccc(OCCCCCOc3ccc(C(=N)NO)cc3)cc2)CC1 [Example 31, N-hydroxy-4-(5-{4-[2-[methyl-(2-morpholin-4-yl-ethyl)-amino]-5-(4-methyl-piperazin-1-ylmethyl)-thiazol-4-yl]-phenoxy}-pentyloxy)-benzamidine] | 102 | 110 | 101 |  | 88 | 
6 | Cc1nc(-c2ccc(OCCCCCOc3ccc(C(=N)NO)cc3)cc2)c(CN2CCOCC2)s1 [Example 8, N-hydroxy-4-{5-[4-(2-methyl-5-morpholin-4-ylmethyl-thiazol-4-yl)-phenoxy]-pentyloxy}-benzamidine] | 90.7 | 94.7 | 102.3 |  | 96.4 | 
7 | Cc1nc(-c2ccc(OCCCCCOc3ccc(C(=N)NO)cc3)cc2)c(CNCC(C)C)s1 [Example 14, N-hydroxy-4-(5-{4-[5-(isobutylamino-methyl)-2-methyl-thiazol-4-yl]-phenoxy}-pentyloxy)-benzamidine] | 103 | 98 | 111 | 100 |  | 
8 | N=C(NO)c1ccc(OCCCCCOc2ccc(-c3nc(N4CCOCC4)sc3N3CCCC3)cc2)cc1 [Example 7, N-hydroxy-4-{5-[4-(2-morpholin-4-yl-5-pyrrolidin-1-yl-thiazol-4-yl)-phenoxy]-pentyloxy}-benzamidine] | 101 | 99 | 92 | 58 |  | 
9 | CCCNCc1sc(C)nc1-c1ccc(OCCCCCOc2ccc(C(=N)NO)cc2)cc1 [Example 16, N-hydroxy-4-{5-[4-(2-methyl-5-propylaminomethyl-thiazol-4-yl)-phenoxy]-pentyloxy}-benzamidine] | 95 | 92 | 100 | 100 |  | 
10 | COCCN(CCOC)Cc1sc(N(C)CCN2CCOCC2)nc1-c1ccc(OCCCCCOc2ccc(C(=N)NO)cc2)cc1 [Example 30, N-hydroxy-4-[5-(4-{5-{[bis-(2-methoxy-ethyl)-amino]-methyl}-2-[methyl-(2-morpholin-4-yl-ethyl)-amino]-thiazol-4-yl}-phenoxy)-pentyloxy]-benzamidine] | 103 | 105 | 107 | 93 |  | 
11 | Cc1nc(-c2ccc(OCCCCCOc3ccc(C(=N)NO)cc3)cc2)c(CN2CCCCC2)s1 [Example 11, N-hydroxy-4-{5-[4-(2-methyl-5-piperidin-1-ylmethyl-thiazol-4-yl)-phenoxy]-pentyloxy}-benzamidine] | 95.8 | 91.9 | 101.9 |  | 92.3 | 
12 | Cc1nc(-c2ccc(OCCCCCOc3ccc(C(=N)NO)cc3)cc2)c(CNCCCn2ccnc2)s1 [Example 18] | 94 | 99 | 106 |  |  | 100
13 | N=C(NO)c1ccc(OCCCCCOc2ccc(-c3nc(N4CCOCC4)sc3N3CCOCC3)cc2)cc1 [Example 5, N-hydroxy-4-{5-[4-(2,5-di-morpholin-4-yl-thiazol-4-yl)-phenoxy]-pentyloxy}-benzamidine] | 98 | 93 | 100 |  | 98 | 
14 | CNc1nc(-c2ccc(OCCCCCOc3ccc(C(=N)NO)cc3)cc2)c(CN2CCOCC2)s1 [Example 50, N-hydroxy-4-{5-[4-(2-methylamino-5-morpholin-4-ylmethyl-thiazol-4-yl)-phenoxy]-pentyloxy}-benzamidine] | 90 | 91 | 102 |  | 100 | 
15 | N=C(NO)c1ccc(OCCCCCOc2ccc(-c3nc(N4CCOCC4)sc3N3CCSCC3)cc2)cc1 [Example 6, N-hydroxy-4-{5-[4-(2-morpholin-4-yl-5-thiomorpholin-4-yl-thiazol-4-yl)-phenoxy]-pentyloxy}-benzamidine] | 106 | 90 | 92 | 92 |  | 
16 | CCN(C)c1nc(-c2ccc(OCCCCCOc3ccc(C(=N)NO)cc3)cc2)c(CN2CCOCC2)s1 [Example 26, N-hydroxy-4-(5-{4-[2-(ethyl-methyl-amino)-5-morpholin-4-ylmethyl-thiazol-4-yl]-phenoxy}-pentyloxy)-benzamidine] | 107 | 98 | 102 |  | 98 | 
17 | CN(Cc1ccncc1)c1nc(-c2ccc(OCCCCCOc3ccc(C(=N)NO)cc3)cc2)c(CN2CCOCC2)s1 [Example 24, N-hydroxy-4-(5-{4-[2-(methyl-pyridin-4-ylmethyl-amino)-5-morpholin-4-ylmethyl-thiazol-4-yl]-phenoxy}-pentyloxy)-benzamidine] | 95 | 86 | 112 | 100 |  | 
